Experimental data: patent US20050074879A1, “Antisense oligonucleotide modulation of STAT3 expression” (priority 2000, published 2005)
Oligonucleotides are written 5' to 3', each unit as a sugar letter and its base; * is a phosphorothioate linkage, no mark a phosphodiester; rarer units and linkages stand in square brackets, end groups in braces. Plain capitals give the bases only. e = 2'-O-(2-methoxyethyl) (MOE); [5mC] = 5-methylcytosine; d = 2'-deoxy (DNA)

Test system: Human STAT3 mRNA
Test: Inhibition of human STAT3 mRNA levels in A549 cells, 75 nM, real-time PCR (Table 13)
Format: cell-based
Conditions: 75 nM oligonucleotide with LIPOFECTIN, real-time PCR PPS 199, percent inhibition relative to untreated control cells, average of 2 experiments
Method: Oligonucleotide activity is assayed by quantitation of STAT3 mRNA levels by real-time PCR (RT-PCR) using the ABI PRISMS 7700 Sequence Detection System (PE-Applied Biosystems, Foster City, Calif.) according to manufacturer's instructions. This is a closed-tube, non-gel-based, fluorescence detection system which allows high-throughput quantitation of polymerase chain reaction (PCR) products in real-time. As opposed to standard PCR, in which amplification products are quantitated after the PCR is completed, products in RT-PCR are quantitated as they accumulate. This is accomplished by including in the PCR reaction an oligonucleotide probe that anneals specifically between the forward and reverse PCR primers, and contains two fluorescent dyes. A reporter dye (e.g., JOE or FAM, PE-Applied Biosystems, Foster City, Calif.) is attached to the 5′ end of the probe and a quencher dye (e.g., TAMRA, PE-Applied Biosystems, Foster City, Calif.) is attached to the 3′ end of the probe. When the probe and dyes are intact, reporter dye emission is quenched by the proximity of the 3′ quencher dye. During amplification, annealing of the probe to the target sequence creates a substrate that can be cleaved by the 5′-exonuclease activity of Taq polymerase. […] With each cycle, additional reporter dye molecules are cleaved from their respective probes, and the fluorescence intensity is monitored at regular (six-second) intervals by laser optics built into the ABI PRISM™ 7700 Sequence Detection System. In each assay, a series of parallel reactions containing serial dilutions of mRNA from untreated control samples generates a standard curve that is used to quantitate the percent inhibition after antisense oligonucleotide treatment of test samples.
RT-PCR reagents are obtained from PE-Applied Biosystems, Foster City, Calif. RT-PCR reactions are carried out by adding 25 l PCR cocktail (1× TAQMAN7 buffer A, 5.5 mM MgCl2, 300 µM each of DATP, dCTP and dGTP, 600 µM of dUTP, 100 nM each of forward primer, reverse primer, and probe, 20 U RNAse inhibitor, 1.25 units AMPLITAQ GOLD7, and 12.5 U MuLV reverse transcriptase) to 96 well plates containing 25 l poly(A) mRNA solution. The RT reaction is carried out by incubation for 30 minutes at 48° C. following a 10 minute incubation at 95° C. to activate the AMPLITAQ GOLD7, 40 cycles of a two-step PCR protocol are carried out: 95° C. for 15 seconds (denaturation) followed by 60° C. for 1.5 minutes (annealing/extension).
The compounds were analyzed for their effect on STAT3 mRNA levels in A549 cells. The human lung carcinoma cell line A549 was obtained from the American Type Culture Collection (ATCC) (Manassas, Va.). A549 cells were routinely cultured in DMEM basal media (Invitrogen Corporation, Carlsbad, Calif.) supplemented with 10% fetal calf serum (Invitrogen Corporation, Carlsbad, Calif.), 100 units/mL penicillin, and 100 ug/mL streptomycin (Invitrogen Corporation, Carlsbad, Calif.). Cells were routinely passaged by trypsinization and dilution when they reached 90% confluence.
When cells reached 65-75% confluency, they were treated with oligonucleotide. For cells grown in 96-well plates, wells were washed once with […] OPTI-MEM-1 reduced-serum medium (Invitrogen Corporation, Carlsbad, Calif.) and then treated with 130 µL of OPTI-MEM-1 containing […] LIPOFECTIN (Invitrogen Corporation, Carlsbad, Calif.) and 75 nM of the compounds in Table 13. Cells were treated and data were obtained in duplicate. Untreated cells served as controls. After 4-7 hours of treatment at 37° C., the medium was replaced with fresh medium. Cells were harvested 16-24 hours after oligonucleotide treatment. STAT3 mRNA levels in A549 cells were quantitated by real-time PCR as described by other methods herein.
Probes and primers to human STAT3 were designed to hybridize to a human STAT3 sequence, using published sequence information (incorporated herein as SEQ ID NO: 1). For STAT 3 the PCR primers were: • forward primer: […]

Substance | % Inhib (inhibition of human STAT 3 mRNA levels) [%]
337280 (antisense eT*eT*eA*eT*eA*dG*dT*dT*dG*dA*dA*dA*dT*d[5mC]*dA*eA*eA*eG*eT*e[5mC]) [compound 337280] | 45
337360 (antisense eT*eG*e[5mC]*eA*eT*d[5mC]*dA*dA*dT*dG*dA*dA*dT*d[5mC]*dT*eA*eA*eA*eG*eT) [compound 337360] | 71
337278 (antisense eA*eA*eT*e[5mC]*eA*dA*dA*dG*dT*d[5mC]*dA*dT*d[5mC]*d[5mC]*dT*eG*eG*eA*eG*eA) [compound 337278] | 69
337354 (antisense eT*eG*e[5mC]*eA*eG*dG*dT*d[5mC]*dG*dT*dT*dG*dG*dT*dG*eT*e[5mC]*eA*e[5mC]*eA) [compound 337354] | 62
337287 (antisense eT*eG*eG*eT*eT*dG*dT*dT*dT*d[5mC]*d[5mC]*dA*dT*dT*d[5mC]*eA*eG*eA*eT*e[5mC]) [compound 337287] | 82
337383 (antisense eT*eA*eA*eA*eA*dA*dG*dA*dA*dA*d[5mC]*d[5mC]*dT*dA*dG*eG*eG*e[5mC]*eT*eT) [compound 337383] | 81
337308 (antisense e[5mC]*e[5mC]*e[5mC]*eA*eG*dA*dA*dT*dG*dT*dT*dA*dA*dA*dT*eT*eT*e[5mC]*e[5mC]*eG) [compound 337308] | 70
337262 (antisense eA*eA*e[5mC]*eT*eG*d[5mC]*d[5mC]*dG*d[5mC]*dA*dG*d[5mC]*dT*d[5mC]*d[5mC]*eA*eT*eT*eG*eG) [compound 337262] | 74
337311 (antisense eT*e[5mC]*eT*e[5mC]*eT*dG*d[5mC]*dT*d[5mC]*d[5mC]*d[5mC]*dT*d[5mC]*dA*dG*eG*eG*eT*e[5mC]*eA) [compound 337311] | 61
337357 (antisense eG*eG*eT*e[5mC]*eA*dA*dT*dG*dG*dT*dA*dT*dT*dG*d[5mC]*eT*eG*e[5mC]*eA*eG) [compound 337357] | 71
337251 (antisense eA*eT*eG*e[5mC]*e[5mC]*d[5mC]*dT*dT*dA*d[5mC]*dT*d[5mC]*dT*d[5mC]*d[5mC]*eG*e[5mC]*eA*eT*e[5mC]) [compound 337251] | 74
337366 (antisense eA*eG*eA*eT*eA*dG*d[5mC]*dA*dG*dA*dA*dG*dT*dA*dG*eG*eA*eG*eA*eT) [compound 337366] | 66
337328 (antisense e[5mC]*eA*eT*eG*eT*dG*dA*dT*d[5mC]*dT*dG*dA*d[5mC]*dA*d[5mC]*e[5mC]*e[5mC]*eT*eG*eA) [compound 337328] | 85
337257 (antisense eG*eG*e[5mC]*eG*eG*d[5mC]*dG*dA*dG*dG*d[5mC]*dT*d[5mC]*d[5mC]*d[5mC]*eT*e[5mC]*eA*eG*eG) [compound 337257] | 80
337279 (antisense eG*eT*eT*eG*eA*dA*dA*dT*d[5mC]*dA*dA*dA*dG*dT*d[5mC]*eA*eT*e[5mC]*e[5mC]*eT) [compound 337279] | 78
337385 (antisense eT*eT*eA*eA*eG*dT*dT*dT*d[5mC]*dT*dT*dA*dA*dA*dT*eA*e[5mC]*eA*eG*eA) [compound 337385] | 70

Substance | % Inhib (inhibition of human STAT 3 mRNA levels) [%]
337291 (antisense e[5mC]*eT*eT*e[5mC]*eT*d[5mC]*d[5mC]*dG*d[5mC]*dA*dT*d[5mC]*dT*dG*dG*eT*e[5mC]*e[5mC]*eA*eG) [compound 337291] | 66
337356 (antisense eA*eT*eG*eG*eT*dA*dT*dT*dG*d[5mC]*dT*dG*d[5mC]*dA*dG*eG*eT*e[5mC]*eG*eT) [compound 337356] | 75
337341 (antisense eT*eG*eA*eT*eG*dA*dT*dT*dT*d[5mC]*dA*dG*d[5mC]*dA*dA*eA*eT*eG*eA*e[5mC]) [compound 337341] | 74
337368 (antisense eT*eT*eT*eT*eT*dA*dA*dA*dA*dG*dT*dG*d[5mC]*d[5mC]*d[5mC]*eA*eG*eA*eT*eT) [compound 337368] | 59
337256 (antisense eG*eA*eA*eG*eG*dG*d[5mC]*d[5mC]*dT*d[5mC]*dT*d[5mC]*d[5mC]*dG*dA*eG*e[5mC]*e[5mC]*eG*eA) [compound 337256] | 67
337309 (antisense eA*eG*eA*eG*eG*d[5mC]*dT*dG*d[5mC]*d[5mC]*dG*dT*dT*dG*dT*eT*eG*eG*eA*eT) [compound 337309] | 73
337318 (antisense eG*eG*eT*e[5mC]*eT*d[5mC]*dT*dA*dG*dG*dT*d[5mC]*dA*dA*dT*e[5mC]*eT*eT*eG*eA) [compound 337318] | 74
337285 (antisense e[5mC]*eA*eT*eG*eT*d[5mC]*dT*d[5mC]*d[5mC]*dT*dT*dG*dA*d[5mC]*dT*e[5mC]*eT*eT*eG*eA) [compound 337285] | 78
337313 (antisense eA*eG*eG*eT*eG*dA*dT*d[5mC]*dA*dG*dG*dT*dG*d[5mC]*dA*eG*e[5mC]*eT*e[5mC]*e[5mC]) [compound 337313] | 61
337355 (antisense eA*eT*eT*eG*e[5mC]*dT*dG*d[5mC]*dA*dG*dG*dT*d[5mC]*dG*dT*eT*eG*eG*eT*eG) [compound 337355] | 61
337376 (antisense eG*e[5mC]*eA*eG*eG*d[5mC]*dA*d[5mC]*d[5mC]*dA*dG*dG*dA*dG*dG*e[5mC]*eA*e[5mC]*eT*eT) [compound 337376] | 83
337296 (antisense e[5mC]*e[5mC]*eA*eG*eT*dT*dT*dT*d[5mC]*dT*dA*dG*d[5mC]*d[5mC]*dG*eA*eT*e[5mC]*eT*eA) [compound 337296] | 80
337342 (antisense eT*eT*eA*eT*eA*dG*d[5mC]*d[5mC]*d[5mC]*dA*dT*dG*dA*dT*dG*eA*eT*eT*eT*e[5mC]) [compound 337342] | 81
337378 (antisense eA*eG*eG*eT*eG*dG*d[5mC]*d[5mC]*dT*dG*dT*dG*dG*d[5mC]*dA*eT*eT*eT*eG*e[5mC]) [compound 337378] | 16
337301 (antisense eA*eG*eG*e[5mC]*eA*d[5mC]*dT*dT*dT*dT*d[5mC]*dA*dT*dT*dA*eA*eG*eT*eT*eT) [compound 337301] | 73
337300 (antisense e[5mC]*e[5mC]*eT*eT*eT*dG*dT*dA*dG*dG*dA*dA*dA*d[5mC]*dT*eT*eT*eT*eT*eG) [compound 337300] | 23
